Read-outs that look alike come from different tables or passages of the source.
Biological target: T1, PERK (Homo sapiens, UniProt Q9NZJ5)
T1 sequence (Q9NZJ5 30-1116): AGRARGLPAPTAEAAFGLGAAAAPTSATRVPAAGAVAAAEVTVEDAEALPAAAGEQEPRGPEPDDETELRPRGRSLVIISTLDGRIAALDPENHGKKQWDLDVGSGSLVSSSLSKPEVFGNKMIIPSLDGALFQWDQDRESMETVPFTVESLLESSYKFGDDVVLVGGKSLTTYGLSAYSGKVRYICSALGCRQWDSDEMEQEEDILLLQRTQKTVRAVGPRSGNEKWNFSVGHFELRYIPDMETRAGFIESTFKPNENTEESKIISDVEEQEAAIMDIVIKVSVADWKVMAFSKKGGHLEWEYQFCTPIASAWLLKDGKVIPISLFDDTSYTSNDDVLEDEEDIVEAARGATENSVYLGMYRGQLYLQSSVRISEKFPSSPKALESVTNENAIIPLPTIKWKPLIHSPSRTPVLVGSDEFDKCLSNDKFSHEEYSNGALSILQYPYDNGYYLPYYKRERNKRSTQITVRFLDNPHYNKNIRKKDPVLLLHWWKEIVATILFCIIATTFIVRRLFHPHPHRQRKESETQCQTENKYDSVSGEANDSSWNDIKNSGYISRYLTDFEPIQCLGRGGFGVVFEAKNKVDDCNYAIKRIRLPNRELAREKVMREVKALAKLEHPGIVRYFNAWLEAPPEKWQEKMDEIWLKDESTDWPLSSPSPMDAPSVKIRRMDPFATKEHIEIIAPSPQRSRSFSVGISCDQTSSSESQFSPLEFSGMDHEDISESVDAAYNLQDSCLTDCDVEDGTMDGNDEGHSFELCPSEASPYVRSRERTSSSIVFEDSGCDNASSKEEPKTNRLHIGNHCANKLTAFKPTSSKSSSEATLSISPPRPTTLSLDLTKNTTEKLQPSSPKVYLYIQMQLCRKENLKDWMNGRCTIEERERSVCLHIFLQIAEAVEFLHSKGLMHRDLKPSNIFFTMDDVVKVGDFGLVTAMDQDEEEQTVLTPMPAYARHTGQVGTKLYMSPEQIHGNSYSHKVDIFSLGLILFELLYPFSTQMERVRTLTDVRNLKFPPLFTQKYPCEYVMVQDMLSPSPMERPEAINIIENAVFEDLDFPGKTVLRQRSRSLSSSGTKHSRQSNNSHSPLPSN
Experiment: PERK enzyme assay (HTRF)
Type: biochemical
Conditions: at least one experimental run
Summary of the method: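 GST-PERK (0.75 nM final) pre-incubated 30–60 min with compound (≤1% DMSO) in HEPES pH 7.5/CHAPS/MgCl2/DTT, then 500 μM ATP and 40 nM biotin-eIF2α added for 60 min. EDTA quench; HTRF detection of phospho-eIF2α (Eu anti-rabbit/streptavidin-APC) read after 2 h; IC50 from concentration series.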

[1] = PERK Enzyme (500 μM ATP) IC50, read-out: PERK Activity
[2] = 500 μM ATP, read-out: PERK Enzyme (500 μM ATP) IC50

| SMILES | IC50 [1] [nM] | IC50 [2] [nM] |
| --- | --- | --- |
| CN1C(=O)N(c2ccc(-c3cn(C4CC4)c4ncnc(N)c34)c(F)c2)CC1c1ccc(F)c(Cl)c1 (stereo not drawn) [Example 132, 1-(4-(4-amino-7-cyclopropyl-7H-pyrrolo[2,3-d]pyrimidin-5-yl)-3-fluorophenyl)-4-(3-chloro-4-fluorophenyl)-3-methylimidazolidin-2-one] | < 100 |  |
| CC(C)CN1C(=O)N(c2ccc(-c3cn(C)c4ncnc(N)c34)c(F)c2)CC1c1cc(F)ccc1F (stereo not drawn) [Example 14, 1-(4-(4-amino-7-methyl-7H-pyrrolo[2,3-d]pyrimidin-5-yl)-3-fluorophenyl)-4-(2,5-difluorophenyl)-3-isobutylimidazolidin-2-one] | 100 to 1000 | 903 |
| CN1C(=O)N(c2ccc(-c3cn(C)c4ncnc(N)c34)c(F)c2)CC1C1CCCCC1 (stereo not drawn) [Example 58, 1-(4-(4-amino-7-methyl-7H-pyrrolo[2,3-d]pyrimidin-5-yl)-3-fluorophenyl)-4-cyclohexyl-3-methylimidazolidin-2-one] | < 100 |  |
| CN1C(=O)N(c2ccc(-c3cn(C4CC4)c4ncnc(N)c34)c(F)c2)CC1c1ccccc1 (single isomer, unassigned) [Example 166, 1-(4-(4-amino-7-cyclopropyl-7H-pyrrolo[2,3-d]pyrimidin-5-yl)-3-fluorophenyl)-3-methyl-4-phenylimidazolidin-2-one] | < 100 |  |
| CN1C(=O)N(c2ccc(-c3cn(C)c4ncnc(N)c34)c(F)c2)CC1c1ccncc1 (stereo not drawn) [Example 110, 1-(4-(4-amino-7-methyl-7H-pyrrolo[2,3-d]pyrimidin-5-yl)-3-fluorophenyl)-3-methyl-4-(pyridin-4-yl)imidazolidin-2-one] | > 1000 | 1980 |
| Cc1c(-c2ccc(N3CC(c4ccc(F)cc4F)N(C)C3=O)cc2F)c2c(N)ncnc2n1C (stereo not drawn) [Example 94, 1-(4-(4-amino-6,7-dimethyl-7H-pyrrolo[2,3-d]pyrimidin-5-yl)-3-fluorophenyl)-4-(2,4-difluorophenyl)-3-methylimidazolidin-2-one] | 100 to 1000 |  |
| CN1C(=O)N(c2ccc(-c3cn(C)c4ncnc(N)c34)c(F)c2)CC1c1cc(F)c(F)cc1F (single isomer, unassigned) [Example 158, 1-(4-(4-amino-7-methyl-7H-pyrrolo[2,3-d]pyrimidin-5-yl)-3-fluorophenyl)-3-methyl-4-(2,4,5-trifluorophenyl)imidazolidin-2-one] | < 100 |  |
| CCn1cc(-c2ccc(N3CC(c4ccc(F)cc4F)N(C)C3=O)cc2F)c2c(N)nc(C)nc21 (stereo not drawn) [Example 109, 1-(4-(4-amino-7-ethyl-2-methyl-7H-pyrrolo[2,3-d]pyrimidin-5-yl)-3-fluorophenyl)-4-(2,4-difluorophenyl)-3-methylimidazolidin-2-one] | < 100 |  |
| CN1C(=O)N(c2ccc(-c3cn(C)c4ncnc(N)c34)c(F)c2)CC1c1cc(F)cc(C(F)(F)F)c1 (stereo not drawn) [Example 84, 1-(4-(4-amino-7-methyl-7H-pyrrolo[2,3-d]pyrimidin-5-yl)-3-fluorophenyl)-4-(3-fluoro-5-(trifluoromethyl)phenyl)-3-methylimidazolidin-2-one] | 100 to 1000 |  |
| Cc1nc(N)c2c(-c3ccc(N4CC(c5ccc(F)cc5)N(C)C4=O)cc3F)cn(C3CC3)c2n1 (single isomer, unassigned) [Example 90, 1-(4-(4-amino-7-cyclopropyl-2-methyl-7H-pyrrolo[2,3-d]pyrimidin-5-yl)-3-fluorophenyl)-4-(4-fluorophenyl)-3-methylimidazolidin-2-one] | < 100 |  |
| CN1C(=O)N(c2ccc(-c3cn(C)c4ncnc(N)c34)c(F)c2)CC1C1CCCCCC1 (stereo not drawn) [Example 138, 1-(4-(4-amino-7-methyl-7H-pyrrolo[2,3-d]pyrimidin-5-yl)-3-fluorophenyl)-4-cycloheptyl-3-methylimidazolidin-2-one] | < 100 |  |
| CN1C(=O)N(c2ccc(-c3cn(C)c4ncnc(N)c34)c(F)c2)CC1c1ccc(F)cc1 (single isomer, unassigned) [Example 59, 1-(4-(4-amino-7-methyl-7H-pyrrolo[2,3-d]pyrimidin-5-yl)-3-fluorophenyl)-4-(4-fluorophenyl)-3-methylimidazolidin-2-one] | < 100 | 3.9 |
| Cn1cc(-c2ccc(N3CC(C4CCCCC4)CC3=O)cc2F)c2c(N)ncnc21 (stereo not drawn) [Example 6, 1-(4-(4-Amino-7-methyl-7H-pyrrolo[2,3-d]pyrimidin-5-yl)-3-fluorophenyl)-4-cyclohexyl pyrrolidin-2-one] | > 1000 |  |
| CN1C(=O)N(c2ccc(-c3cn(C4CC4)c4ncnc(N)c34)c(F)c2)CC1c1ccc(F)c(F)c1 (single isomer, unassigned) [Example 117, 1-(4-(4-amino-7-cyclopropyl-7H-pyrrolo[2,3-d]pyrimidin-5-yl)-3-fluorophenyl)-4-(3,4-difluorophenyl)-3-methylimidazolidin-2-one] | 100 to 1000 |  |
| CN1C(=O)N(c2ccc(-c3cn(C4CC4)c4ncnc(N)c34)c(Cl)c2)CC1c1cc(F)cc(F)c1 (single isomer, unassigned) [Example 130, 1-(4-(4-amino-7-cyclopropyl-7H-pyrrolo[2,3-d]pyrimidin-5-yl)-3-chlorophenyl)-4-(3,5-difluorophenyl)-3-methylimidazolidin-2-one] | < 100 |  |
| CCN1C(=O)N(c2ccc(-c3cn(C)c4ncnc(N)c34)c(F)c2)CC1c1cc(F)ccc1F (single isomer, unassigned) [Example 3, 1-(4-(4-amino-7-methyl-7H-pyrrolo[2,3-d]pyrimidin-5-yl)-3-fluorophenyl)-4-(2,5-difluorophenyl)-3-ethylimidazolidin-2-one] | 100 to 1000 |  |
| CN1C(=O)N(c2ccc(-c3cn(C4CC4)c4ncnc(N)c34)c(F)c2)CC1c1cc(F)ccc1F (stereo not drawn) [Example 144, 1-(4-(4-amino-7-cyclopropyl-7H-pyrrolo[2,3-d]pyrimidin-5-yl)-3-fluorophenyl)-4-(2,5-difluorophenyl)-3-methylimidazolidin-2-one] | < 100 |  |
| CN1C(=O)N(c2ccc(-c3cn(C)c4ncnc(N)c34)c(F)c2)CC1c1ccccn1 (stereo not drawn) [Example 7, 1-(4-(4-amino-7-methyl-7H-pyrrolo[2,3-d]pyrimidin-5-yl)-3-fluorophenyl)-3-methyl-4-(pyridin-2-yl)imidazolidin-2-one] | < 100 |  |
| CN1C(=O)N(c2ccc(-c3cn(C4CC4)c4ncnc(N)c34)c(F)c2)CC1c1ccccc1 (stereo not drawn) [Example 149, 1-(4-(4-amino-7-cyclopropyl-7H-pyrrolo[2,3-d]pyrimidin-5-yl)-3-fluorophenyl)-3-methyl-4-phenylimidazolidin-2-one] | < 100 |  |
| CN1C(=O)N(c2ccc(-c3cn(C)c4ncnc(N)c34)c(F)c2)CC1c1cccc(Cl)c1F (stereo not drawn) [Example 26, 1-(4-(4-amino-7-methyl-7H-pyrrolo[2,3-d]pyrimidin-5-yl)-3-fluorophenyl)-4-(3-chloro-2-fluorophenyl)-3-methylimidazolidin-2-one] | 100 to 1000 |  |
| Cc1nc(N)c2c(-c3ccc(N4CC(c5c(F)ccc(F)c5F)N(C)C4=O)cc3F)cn(C)c2n1 (stereo not drawn) [Example 139, 1-(4-(4-amino-2,7-dimethyl-7H-pyrrolo[2,3-d]pyrimidin-5-yl)-3-fluorophenyl)-3-methyl-4-(2,3,6-trifluorophenyl)imidazolidin-2-one] | 100 to 1000 |  |
| Cn1cc(-c2ccc(N3CC(c4cc(F)ccc4F)CC3=O)cc2F)c2c(N)ncnc21 (stereo not drawn) [Example 31, 1-(4-(4-amino-7-methyl-7H-pyrrolo[2,3-d]pyrimidin-5-yl)-3-fluorophenyl)-4-(2,5-difluorophenyl)pyrrolidin-2-one] | 100 to 1000 |  |
| Cc1nc(N)c2c(-c3ccc(N4CC(c5c(F)ccc(F)c5F)N(C)C4=O)cc3F)cn(C)c2n1 (stereo not drawn) [Example 72, 1-(4-(4-amino-2,7-dimethyl-7H-pyrrolo[2,3-d]pyrimidin-5-yl)-3-fluorophenyl)-3-methyl-4-(2,3,6-trifluorophenyl)imidazolidin-2-one] | 100 to 1000 |  |
| CN1C(=O)N(c2ccc(-c3cn(C)c4ncnc(N)c34)c(F)c2)CC1c1cccc(F)c1F (stereo not drawn) [Example 74, 1-(4-(4-amino-7-methyl-7H-pyrrolo[2,3-d]pyrimidin-5-yl)-3-fluorophenyl)-4-(2,3-difluorophenyl)-3-methylimidazolidin-2-one] | 100 to 1000 |  |

Reference: patent US20180237441A1, “Chemical Compounds” (GlaxoSmithKline Intellectual Property (No.2) Limited, priority 2015, published 2018)
